Counter-ions that a name gives are not always drawn. Like-named read-outs stand apart in the source and are kept apart here.
Key:
[1] = in vitro; settings: African green monkey
[2] = test system: SARS-CoV-2 (USA_WA1/2020); experiment: microbe, parasite or virus in culture; assay type: cell-based
[3] = human, cited from earlier work; for Cmax: Single dose 600 mg PO, ref Winstanley et al. (1987)
[4] = test system: Vero E6 cells; settings: Vero E6 cells without virus, 72 h
[5] = Severe acute respiratory syndrome coronavirus 2, Vero C1008, […], DMSO 0%, no-virus control 100%, hit confirmation, read-out: CPE % efficacy
[6] = Severe acute respiratory syndrome coronavirus 2, Vero C1008, read-out: CPE % Efficacy
[7] = Severe acute respiratory syndrome coronavirus 2, Vero C1008, read-out: CPE EC50
[8] = Severe acute respiratory syndrome coronavirus 2, Vero C1008, SARS-CoV-2 CPE assay, Vero E6 cells, confirmed anti-SARS-CoV-2 compounds, read-out: CPE EC50
[9] = Severe acute respiratory syndrome coronavirus 2, Vero C1008, SARS-CoV-2 CPE assay, Vero E6 cells, efficacy, read-out: CPE % Efficacy
[10] = Severe acute respiratory syndrome coronavirus 2, Vero C1008, SARS-CoV-2 CPE assay, Vero E6 cells, read-out: CPE % Efficacy
[11] = Severe acute respiratory syndrome coronavirus 2, Vero C1008, SARS-CoV-2 CPE assay, Vero E6 cells, read-out: CPE EC50
[12] = Severe acute respiratory syndrome coronavirus 2, Vero C1008, read-out: CPE EC50 (uM)
[13] = Severe acute respiratory syndrome coronavirus 2, Vero C1008, 72 h, read-out: CPE EC50

| SMILES | cytotoxicity [1] [%] | CC50 [1] [µM] | cytotoxicity at 72 h [1] [%] | EC50 [2, 8] [µM] | Emax [2, 9] [%] | other results |
| --- | --- | --- | --- | --- | --- | --- |
| CNCCC(Oc1ccc(C(F)(F)F)cc1)c1ccccc1 (racemic) [(+/-) -Fluoxetine, reference compound] | < 30 | – | – | – | – | Emax [2, 5]: 116%; Elimination T1/2 ([3]; Single dose 40 mg PO, ref Eli Lilly and Company (1987)): 24 to 72 h |
| CCN(CC)Cc1cc(Nc2ccnc3cc(Cl)ccc23)ccc1O.Cl.Cl.O.O [Amodiaquine dihydrochloride, reference compound] | – | – | – | – | – | CPE % Efficacy ([2]; […], DMSO 0%, no-virus control 100%, hit confirmation): 87.2%; EC50 ([2]; read-out: CPE EC50): 4 µM; % Cytotox [4]: <30%; Cmax [3]: 32 ± 3 ng/mL; Cmax ([3]; read-out: Cmax): 69 nM |
| CN1CCC[C@@H]1CCO[C@](C)(c1ccccc1)c1ccc(Cl)cc1 [Clemastine fumarate, reference compound] | < 30 | – | – | – | – | Elimination T1/2 ([3]; Single dose 1.34 mg PO, ref Schran et al. (1996)): 21.3 ± 11.6 h |
| NC(=O)c1cccc2cn(-c3ccc([C@@H]4CCCNC4)cc3)nc12 [Niraparib] | 24.3 | 15.8 | – | – | – | Emax [2, 6]: 134%; EC50 [2, 7]: 11.2 µM |
| CC(=O)Oc1ccccc1C(=O)Nc1ncc([N+](=O)[O-])s1 [Nitazoxanide] | – | – | 54.7 | 6.31 | 73.7 | CC50 at 72 h [1]: 12.6 µM |
| C=C1C(=O)[C@]23[C@H](O)[C@H]1CC[C@H]2[C@@]12CO[C@]3(O)[C@@H](O)[C@@H]1C(C)(C)CC[C@@H]2O [Oridonin] | 27.4 | – | – | – | – | Emax [2, 10]: 130%; EC50 [2, 11]: 11.2 µM |
| OCCOc1ccc(/C(=C(/CCCl)c2ccccc2)c2ccccc2)cc1 [Ospemifene] | 26.6 | 12.6 | – | – | – | Emax [2, 6]: 48.2%; EC50 [2, 12]: 12.6 µM |
| O=c1[nH]c2ccccc2n1CCCN1CCN(C(c2ccccc2)c2ccccc2)CC1 [Oxatomide] | – | – | 31.3 | 10 | 83.9 | – |
| N#Cc1ccc2c(c1)N(CCCN1CCC(O)CC1)c1ccccc1S2 [PERICIAZINE] | 23.1 | – | – | – | – | Emax [2, 10]: 107%; EC50 [2, 11]: 12.6 µM |
| Fc1ccc2[nH]ccc2c1-c1nc(N2CCOCC2)c2sc(CN3CCN(CC4CC4)CC3)cc2n1 [PI-3065] | – | – | 52.2 | – | – | CC50 at 72 h [1]: 5.62 µM; Emax [2, 10]: 32.7%; EC50 [2, 11]: 14.1 µM |
| NC(=O)c1cnc(N[C@@H]2CCCC[C@@H]2N)nc1Nc1cccc(-n2nccn2)c1 [PRT-062607] | 24.9 | – | – | 11.2 | 66.4 | – |
| CNCCC=C1c2ccccc2CCc2ccccc21 [Pamelor] | 0 | – | – | – | – | Emax [2, 6]: 103%; EC50 [2, 12]: 12.6 µM |
| c1ccc(-c2cc(CCC3CCNCC3)c3ccccc3n2)cc1 [Pipequaline] | – | – | 108 | 10 | 33.3 | CC50 at 72 h [1]: 12.6 µM |
| CN1CCC(=C2c3ccccc3CCc3sccc32)CC1 [Pizotifen] | – | – | 13.4 | 11.2 | 111 | CC50 at 72 h [1]: 11.2 µM |
| COC(=O)[C@]1(C)CC[C@]2(C)CC[C@]3(C)C4=CC=C5C(=CC(=O)C(O)=C5C)[C@]4(C)CC[C@@]3(C)[C@@H]2C1 [Pristimerin, reference compound] | – | 1.1 | – | – | – | EC50 [2, 13]: 0.11 µM; Emax [2, 5]: 87.4% |
| CN1CCN(CCCN2c3ccccc3Sc3ccc(Cl)cc32)CC1 [Prochlorperazine dimaleate] | 103 | 22.4 | – | – | 107 | – |
| CCCN(CCC)C(=O)C(CCC(=O)OCCCN1CCN(CCOC(=O)Cc2c(C)n(C(=O)c3ccc(Cl)cc3)c3ccc(OC)cc23)CC1)NC(=O)c1ccccc1 (stereo not shown) [Proglumetacin, reference compound] | – | – | < 30 | – | – | EC50 [2, 13]: 10 µM; Emax [2, 5]: 87.6% |
| CN(C)CCCN1c2ccccc2Sc2ccccc21 [Promazine hydrochloride] | 9.4 | – | – | 10 | 55.8 | – |
| CC(CN1c2ccccc2Sc2ccccc21)N(C)C (stereo not shown) [Promethazine] | – | – | 15.4 | 11.2 | 94 | CC50 at 72 h [1]: 15.8 µM |
| CCCNCC(O)COc1ccccc1C(=O)CCc1ccccc1 (stereo not shown) [Propafenone hydrochloride] | 0 | – | – | – | – | Emax [2, 10]: 61.6%; EC50 [2, 11]: 14.1 µM |
| CCC(=O)c1ccc2c(c1)N(CCCN(C)C)c1ccccc1S2 [Propionylpromazine hydrochloride] | – | – | 19.8 | 11.2 | 72.3 | – |

| SMILES | cytotoxicity [1] [%] | CC50 [1] [µM] | cytotoxicity at 72 h [1] [%] | EC50 [2, 8] [µM] | Emax [2, 9] [%] | other results |
| --- | --- | --- | --- | --- | --- | --- |
| CNCCCC1c2ccccc2C=Cc2ccccc21 [Protriptyline hydrochloride] | 17.4 | 12.6 | – | – | – | Emax [2, 6]: 58.2%; EC50 [2, 7]: 11.2 µM |
| COCCN1CCN(Cc2ccc(-c3n[nH]c4c3C(=O)c3c(NC(=O)NN5CCOCC5)cccc3-4)cc2)CC1 [RGB-286638] | – | – | 37.9 | 2.82 | 111 | CC50 at 72 h [1]: 0.32 µM |
| COC(=O)[C@H]1[C@H]2C[C@@H]3c4[nH]c5cc(OC)ccc5c4CCN3C[C@H]2C[C@@H](OC(=O)/C=C/c2ccc(O)c(OC)c2)[C@@H]1OC [Rescimetol, reference compound] | – | – | < 30 | – | – | EC50 [2, 13]: 8.9 µM; Emax [2, 5]: 81.8% |
| COC(=O)[C@H]1[C@H]2C[C@@H]3c4[nH]c5cc(OC)ccc5c4CCN3C[C@H]2C[C@@H](OC(=O)c2cc(OC)c(OC)c(OC)c2)[C@@H]1OC [Reserpine] | 13.4 | 19.9 | – | 11.2 | 91.8 | – |
| Cc1nc(Nc2ccc(F)cc2)nc(N2CCc3ccccc3C2C)c1C (stereo not shown) [Revaprazan HCl] | – | – | 49.9 | 5.01 | 60.4 | – |
| Oc1ccc(-c2nc(-c3ccncc3)c(-c3ccc(F)cc3)[nH]2)cc1 [SB-202190] | – | – | 62.4 | 3.98 | 95.8 | – |
| CN1CCC(c2cn(C)c3ccc(OS(=O)(=O)c4c(F)cccc4F)cc23)CC1 [SGS 518] | 18.2 | 8.91 | – | – | – | Emax [2, 10]: 101%; EC50 [2, 11]: 12.6 µM |
| CC1(C)CC(=O)c2c(C(F)(F)F)nn(-c3ccc(C(N)=O)c(N[C@H]4CC[C@H](OC(=O)CN)CC4)c3)c2C1 [SNX-5422] | 27.4 | 0.56 | – | 1.58 | 33.8 | – |
| O=C(/C=C/c1ccccc1)NC(NC(=S)Nc1cccc2cccnc12)C(Cl)(Cl)Cl (stereo not shown) [Salubrinal] | 15.9 | 5.01 | – | 10 | 38.3 | – |
| Cc1cc(O)c2c(c1)O[C@@]1(C)CC[C@H]3C(C)(C)CCC[C@]34CO[C@@H]2[C@H]41 [Siccanin] | – | – | 0 | – | – | Emax [2, 10]: 104%; EC50 [2, 11]: 12.6 µM |
| O=C(CCCN1CCC2(CC1)C(=O)NCN2c1ccccc1)c1ccc(F)cc1 [Spiperone] | – | – | 30 | 4.47 | 61.2 | CC50 at 72 h [1]: 3.55 µM |
| CN1CCN(CC/C=C2/c3ccccc3Sc3ccc(S(=O)(=O)N(C)C)cc32)CC1 [THIOTHIXENE] | 108 | 12.6 | – | 3.98 | 70.6 | – |
| CCN(CC)CCOc1ccc2c(c1)C(=O)c1cc(OCCN(CC)CC)ccc1-2 [TILORONE] | – | – | 97.2 | 3.98 | 74.3 | CC50 at 72 h [1]: 11.2 µM |
| CC/C(=C(\c1ccccc1)c1ccc(OCCN(C)C)cc1)c1ccccc1 [Tamoxifen] | 93.9 | – | – | – | 102 | – |
| CN1CCN(CCCN2c3ccccc3Sc3ccc(S(=O)(=O)N(C)C)cc32)CC1 [Thioproperazine dimethanesulfonate] | – | – | 19.6 | 8.91 | 54 | CC50 at 72 h [1]: 15.8 µM |
| CC(=O)O[C@@H]1C[C@H](O)[C@@]23CO[C@@H](O)[C@]1(C)[C@@H]2C[C@@H](O)[C@]1(C)[C@@H]3C(=O)[C@H](OC(C)=O)[C@@]2(C)[C@H](c3ccoc3)C[C@H]3O[C@]321 [Toosendanin] | 40.9 | 2.66 | – | 1.19 | 88.9 | – |
| CC(CN(C)C)CN1c2ccccc2CCc2ccccc21 (stereo not shown) [Trimipramine maleate] | 19.8 | 15.8 | – | 10 | 51.8 | – |
| CC(C)(O)CNc1ncc(-c2ccnc(Nc3ccnc(Cl)c3)n2)c(CC2CC2)n1 [VPS34-IN1, reference compound] | – | 10 | – | – | – | Shape of concentration-response in the CPE assay ([2]; Figure 3): bell-shaped concentration-responses due to cytotoxicity; EC50 [2, 13]: 0.63 µM; Emax [2, 5]: 103% |
| N#Cc1ccc2[nH]cc(CCCCN3CCN(c4ccc5oc(C(N)=O)cc5c4)CC3)c2c1 [Vilazodone Hydrochloride] | – | – | 25.3 | – | – | CC50 at 72 h [1]: 19.9 µM; Emax [2, 10]: 90.8%; EC50 [2, 11]: 12.6 µM |
| CN1CC[C@@H](c2c(O)cc(O)c3c(=O)cc(-c4ccc(C(F)(F)F)cc4Cl)oc23)[C@@H]1CO [Voruciclib] | 12.9 | – | – | – | – | Emax [2, 10]: 39.2%; EC50 [2, 11]: 14.1 µM |
| O=C(Nc1ccc(-c2ccnc(Nc3ccc(N4CCOCC4)cc3)n2)cc1)C1CCCN1 (stereo not shown) [XL019] | 61.8 | 8.91 | – | – | – | Emax [2, 10]: 53.9%; EC50 [2, 11]: 14.1 µM |
